The values that follow come from patent US20260184710A1, “CASITAS B-LINEAGE LYMPHOMA PROTOONCOGENE B (CBL-B) DEGRADING COMPOUNDS AND ASSOCIATED METHODS OF USE” (Arvinas Operations, Inc., priority 2022, published 2026).

Read-outs that look alike come from different tables or passages of the source. A value given as a limit tells only on which side of the number the result lay.

One may read the Dmax as the largest share of the target that was removed. Usually IC50 stands for the midpoint of a concentration-inhibition curve.

For experiment [1], the target named is T1, Cbl-b (Homo sapiens, UniProt Q13191).
T1 construct: Cbl-b-HiBit KI Jurkat Cells were purchased from Promega; host or cells: Cbl-b-HiBiT knock-in Jurkat cells
T1 sequence (Q13191 whole entry): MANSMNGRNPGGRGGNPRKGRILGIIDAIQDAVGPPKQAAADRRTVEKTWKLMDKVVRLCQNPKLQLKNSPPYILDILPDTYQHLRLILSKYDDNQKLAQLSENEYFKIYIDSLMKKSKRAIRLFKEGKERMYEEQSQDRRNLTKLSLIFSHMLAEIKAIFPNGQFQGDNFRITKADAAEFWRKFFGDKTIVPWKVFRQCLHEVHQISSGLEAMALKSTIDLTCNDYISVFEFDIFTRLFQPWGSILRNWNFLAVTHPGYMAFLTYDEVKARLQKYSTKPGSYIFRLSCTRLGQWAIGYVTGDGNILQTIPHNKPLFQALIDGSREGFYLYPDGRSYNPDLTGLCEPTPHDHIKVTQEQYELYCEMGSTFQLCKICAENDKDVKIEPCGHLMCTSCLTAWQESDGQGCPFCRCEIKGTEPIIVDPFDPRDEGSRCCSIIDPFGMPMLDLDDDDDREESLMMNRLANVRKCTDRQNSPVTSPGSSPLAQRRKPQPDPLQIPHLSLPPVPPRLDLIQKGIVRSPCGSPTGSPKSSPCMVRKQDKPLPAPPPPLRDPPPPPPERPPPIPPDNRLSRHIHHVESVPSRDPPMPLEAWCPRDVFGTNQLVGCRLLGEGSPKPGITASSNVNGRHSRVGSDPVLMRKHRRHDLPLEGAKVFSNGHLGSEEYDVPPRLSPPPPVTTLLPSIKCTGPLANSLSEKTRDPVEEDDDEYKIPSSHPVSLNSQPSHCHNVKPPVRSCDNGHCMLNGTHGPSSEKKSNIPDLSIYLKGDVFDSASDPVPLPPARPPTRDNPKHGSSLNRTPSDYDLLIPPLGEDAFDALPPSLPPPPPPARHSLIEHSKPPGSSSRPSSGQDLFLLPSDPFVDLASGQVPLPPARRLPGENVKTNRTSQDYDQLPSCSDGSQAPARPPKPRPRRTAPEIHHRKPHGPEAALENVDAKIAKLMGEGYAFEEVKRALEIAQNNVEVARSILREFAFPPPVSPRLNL
Put plainly: Cbl-b Degradation Method A (FACS, anti-Cbl-b antibody staining). The experiment is classed as cell-based. Particulars: for Dmax: Jurkat, read-out: Cbl-b Degredation Method A Dmax (%). A digest of the protocol: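 Readout is flow cytometry of fixed, permeabilized cells immunostained for Cbl-b (primary 1:200, AF488 secondary). Cells were Cbl-b-HiBit knock-in Jurkat, exposed to compound ≥20 h at 37 °C; half-maximal degradation concentration (DC50) and maximal degradation (Dmax) calculated relative to control.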

Experiment [2] deals with T1, Cbl-b. The experiment can be described thus: Cbl-b Degradation Method B (Nano-Glo HiBiT lytic detection). The class given is cell-based. Particulars: Cbl-b-HiBit KI Jurkat Cells, incubated at least 6-24 hours; for Cbl-b Degredation Method B Dmax (%): maximum degradation observed. A digest of the protocol:
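An 11-point, 3-fold compound dilution was applied for 6-24 hours to Jurkat cells carrying HiBiT-tagged endogenous Cbl-b. Lytic HiBiT luminescence quantified residual protein. Outputs are DC50 and Dmax relative to DMSO control.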
(In general: HiBiT is a short tag that completes a luciferase, so light tracks the accessible tagged protein.)

Setting [3] is: Cbl-b-HiBit KI Jurkat Cells, incubated at least 20 hours, half maximal degradation, read-out: Cbl-b Degredation Method A IC50.
Where [4] appears, read: half maximal degradation, read-out: Cbl-b Degredation Method B IC50.
Setting [5] is: Cbl-b-HiBit KI Jurkat Cells, incubated at least 20 hours, maximum degradation observed.

For the molecule `CC1c2nc(N3CCC(CN4CCN(CC5CCN(Cc6cc7c(c(C(F)(F)F)c6)CN(c6cccc([C@]8(Cc9nncn9C)C[C@@H](C#N)C8)c6)C7=O)C(C)(C)C5)CC4)CC3)ccc2C(=O)N1C1CCC(=O)NC1=O` (stereo partly drawn) [Example 277, (1r, 3r)-3-(3-{6-[(4-{[4-({1-[6-(2,6-dioxopiperidin-3-yl)-7-methyl-5-oxo-5H, 6H, 7H-pyrrolo [3,4-b]pyridin-2-yl]piperidin-4-yl}methyl)piperazin-1-yl]methyl}-2,2-dimethylpiperidin-1-yl)methyl]-1-oxo-4-(trifluoromethyl)-2,3-dihydro-1H-isoindol-2-yl}phenyl)-3-[(4-methyl-4H-1,2,4-triazol-3-yl)methyl]cyclobutane-1-carbonitrile], the DC50 in experiment [1] (setting [3]) was 5 to 50 nM; in experiment [2] (setting [4]), less than 5 nM. The greatest degradation seen (Dmax) in experiment [1] is less than 35%. Besides, the “Cbl-b Degredation Method B Dmax (%)” value in experiment [2] was “C (C ≤ 35)”.
As for `Cc1cc(N2CCC(C(C)(C)N3CCC4(CC3)CN(c3cc5c(c(C(F)(F)F)c3)CN(c3cccc([C@]6(Cc7nncn7C)C[C@@H](C#N)C6)c3)C5=O)C4)CC2)c(F)c2c1C(=O)N([C@@H]1CCC(=O)NC1=O)C2` [Example 278, (1r, 3r)-3-(3-{6-[7-(2-{1-[2-(2,6-dioxopiperidin-3-yl)-4-fluoro-7-methyl-1-oxo-2,3-dihydro-1H-isoindol-5-yl]piperidin-4-yl}propan-2-yl)-2,7-diazaspiro[3.5]nonan-2-yl]-1-oxo-4-(trifluoromethyl)-2,3-dihydro-1H-isoindol-2-yl}phenyl)-3-[(4-methyl-4H-1,2,4-triazol-3-yl)methyl]cyclobutane-1-carbonitrile], the results for the IC50 in experiment [1] (setting [3]) and in experiment [2] (setting [4]) were 50 to 500 nM and 5 to 50 nM, respectively. Further, the “Cbl-b Degredation Method A Dmax (%)” value in experiment [1] (setting [5]) is on record as “B (35 < B < 70)”. Also, the “Cbl-b Degredation Method B Dmax (%)” value in experiment [2] is reported as “C (C ≤ 35)”.
Regarding `CC1c2nc(N3CCC(O[C@H]4CC[C@H](CN5CCN(Cc6cc7c(c(C(F)(F)F)c6)CN(c6cccc(C8(c9nncn9C)CCO8)c6)C7=O)C(C)(C)C5)CC4)CC3)ccc2C(=O)N1C1CCC(=O)NC1=O` (stereo partly drawn) [Example 281, 3-[7-methyl-5-oxo-2-(4-{[(1r, 4r)-4-({3,3-dimethyl-4-[(2-{3-[2-(4-methyl-4H-1,2,4-triazol-3-yl)oxetan-2-yl]phenyl}-3-oxo-7-(trifluoromethyl)-2,3-dihydro-1H-isoindol-5-yl)methyl]piperazin-1-yl}methyl)cyclohexyl]oxy}piperidin-1-yl)-5H, 6H, 7H-pyrrolo[3,4-b]pyridin-6-yl]piperidine-2,6-dione], the figures for the DC50 in experiment [1] (setting [3]) and in experiment [2] (setting [4]) were 5 to 50 nM and less than 5 nM, respectively. In experiment [1] (setting [5]), the maximal degradation (Dmax) lay within 35 to 70%. Besides, the “Cbl-b Degredation Method B Dmax (%)” value in experiment [2] is “C (C ≤ 35)”.
The corresponding values for `CC(C)n1c(=O)n(C2CCC(=O)NC2=O)c2cccc(N3CCC(CN4CCC5(CC4)CN(Cc4ccc(-c6cc7c(c(C(F)(F)F)c6)CN(c6cccc(C8(Cc9nncn9C)CC(C#N)C8)c6)C7=O)cc4)C5)CC3)c21` (stereo not drawn) [Example 283, 3-[3-[6-[4-[[7-[[1-[1-(2,6-dioxo-3-piperidyl)-3-isopropyl-2-oxo-benzimidazol-4-yl]-4-piperidyl]methyl]-2,7-diazaspiro[3.5]nonan-2-yl]methyl]phenyl]-1-oxo-4-(trifluoromethyl)isoindolin-2-yl]phenyl]-3-[(4-methyl-1,2,4-triazol-3-yl)methyl]cyclobutanecarbonitrile] are 50 to 500 nM, 5 to 50 nM, 35 to 70% and “C (C ≤ 35)”.
The corresponding values for `CC(C)n1c(=O)n(C2CCC(=O)NC2=O)c2cccc(N3CCC(CN4CCC5(CC4)CN(c4cc6c(c(C(F)(F)F)c4)CN(c4cccc([C@]7(Cc8nncn8C)C[C@@H](C#N)C7)c4)C6=O)C5)CC3)c21` (stereo partly drawn) [Example 284, (1r,3r)-3-(3-{6-[7-({1-[1-(2,6-dioxopiperidin-3-yl)-2-oxo-3-(propan-2-yl)-2,3-dihydro-1H-1,3-benzodiazol-4-yl]piperidin-4-yl}methyl)-2,7-diazaspiro[3.5]nonan-2-yl]-1-oxo-4-(trifluoromethyl)-2,3-dihydro-1H-isoindol-2-yl}phenyl)-3-[(4-methyl-4H-1,2,4-triazol-3-yl)methyl]cyclobutane-1-carbonitrile] are 50 to 500 nM, less than 5 nM, 35 to 70% and “C (C ≤ 35)”.
With `Cn1cnnc1CC1(c2cccc(N3Cc4c(cc(CN5CCC[C@@H](CN6CCN(C[C@H]7CC[C@H](OC8CCN(c9ccc%10c(c9F)CN(C9CCC(=O)NC9=O)C%10=O)CC8)CC7)CC6(C)C)C5)cc4C(F)(F)F)C3=O)c2)COC1` (stereo partly drawn) [Example 286, 3-[4-fluoro-1-oxo-5-(4-{[(1r,4r)-4-[(3,3-dimethyl-4-{[(3R)-1-{[2-(3-{3-[(4-methyl-4H-1,2,4-triazol-3-yl)methyl]oxetan-3-yl}phenyl)-3-oxo-7-(trifluoromethyl)-2,3-dihydro-1H-isoindol-5-yl]methyl}piperidin-3-yl]methyl}piperazin-1-yl)methyl]cyclohexyl]oxy}piperidin-1-yl)-2,3-dihydro-1H-isoindol-2-yl]piperidine-2,6-dione], the DC50 was 50 to 500 nM in experiment [1] (setting [3]) and less than 5 nM in experiment [2] (setting [4]). The greatest degradation seen (Dmax) in experiment [1] (setting [5]) was in the range of 35 to 70%. In experiment [2], the “Cbl-b Degredation Method B Dmax (%)” value is “C (C ≤ 35)”.
`CC(C)n1c(=O)n(C2CCC(=O)NC2=O)c2cccc(N3CCC(O[C@H]4CC[C@H](CN5CCCN(Cc6cc7c(c(C(F)(F)F)c6)CN(c6cccc([C@]8(Cc9nncn9C)C[C@@H](C#N)C8)c6)C7=O)CC5)CC4)CC3)c21` (stereo partly drawn) [Example 289, (1r,3r)-3-[(4-methyl-4H-1,2,4-triazol-3-yl)methyl]-3-(3-{1-oxo-6-[(4-{[(1r,4r)-4-({1-[1-(2,6-dioxopiperidin-3-yl)-2-oxo-3-(propan-2-yl)-2,3-dihydro-1H-1,3-benzodiazol-4-yl]piperidin-4-yl}oxy)cyclohexyl]methyl}-1,4-diazepan-1-yl)methyl]-4-(trifluoromethyl)-2,3-dihydro-1H-isoindol-2-yl}phenyl)cyclobutane-1-carbonitrile]: the DC50 was 5 to 50 nM in experiment [1] (setting [3]) and less than 5 nM in experiment [2] (setting [4]). For the same molecule, the greatest degradation seen (Dmax) in experiment [1] (setting [5]) fell in the range of 35 to 70%. Also, in experiment [2], the “Cbl-b Degredation Method B Dmax (%)” value is reported as “C (C ≤ 35)”.
Take `Cc1cc(N2CCC(O[C@H]3CC[C@H](CN4CCN(Cc5cc(C(F)(F)F)c6cn(-c7cccc(C8(Cc9nncn9C)CC(C#N)C8)c7)nc6c5)C(C)(C)C4)CC3)CC2)c(F)c2c1C(=O)N(C1CCC(=O)NC1=O)C2` (stereo partly drawn) [Example 292, (1r**,3r**)-3-(3-{6-[(2,2-dimethyl-4-{[(1r*,4r*)-4-({1-[2-(2,6-dioxopiperidin-3-yl)-4-fluoro-7-methyl-1-oxo-2,3-dihydro-1H-isoindol-5-yl]piperidin-4-yl}oxy)cyclohexyl]methyl}piperazin-1-yl)methyl]-4-(trifluoromethyl)-2H-indazol-2-yl}phenyl)-3-[(4-methyl-4H-1,2,4-triazol-3-yl)methyl]cyclobutane-1-carbonitrile]: the DC50 in experiment [1] (setting [3]) fell in the range of 5 to 50 nM; in experiment [2] (setting [4]) it was 50 to 500 nM. Moreover, in experiment [1] (setting [5]), the Dmax is less than 35%.
`COC1CC(Cc2nncn2C)(c2cccc(N3Cc4c(cc(CN5CCN(C[C@H]6CC[C@H](OC7CCN(c8ccc9c(n8)C(C)N(C8CCC(=O)NC8=O)C9=O)CC7)CC6)CC5(C)C)cc4C(F)(F)F)C3=O)c2)C1` (stereo partly drawn) [Example 294, 3-[7-methyl-5-oxo-2-(4-{[(1r,4r)-4-[(4-{[2-(3-{3-methoxy-1-[(4-methyl-4H-1,2,4-triazol-3-yl)methyl]cyclobutyl}phenyl)-3-oxo-7-(trifluoromethyl)-2,3-dihydro-1H-isoindol-5-yl]methyl}-3,3-dimethylpiperazin-1-yl)methyl]cyclohexyl]oxy}piperidin-1-yl)-5H,6H,7H-pyrrolo[3,4-b]pyridin-6-yl]piperidine-2,6-dione]: the DC50 in experiment [1] (setting [3]) was 50 to 500 nM; in experiment [2] (setting [4]) it was less than 5 nM. In addition, in experiment [1] (setting [5]), the greatest degradation seen (Dmax) was greater than 70%. For the same molecule, in experiment [2], the “Cbl-b Degredation Method B Dmax (%)” value is reported as “C (C ≤ 35)”.
The corresponding values for `Cn1cnnc1C[C@]1(c2cccc(N3Cc4c(cc(CN5CCN(C[C@H]6CC[C@H](OC7CCN(c8ccc9c(n8)n(C)c(=O)n9C8CCC(=O)NC8=O)CC7)CC6)CC5(C)C)cc4C(F)(F)F)C3=O)c2)C[C@H](C#N)C1` (stereo partly drawn) [Example 300, (1r,3r)-3-(3-{6-[(2,2-dimethyl-4-{[(1r,4r)-4-({1-[1-(2,6-dioxopiperidin-3-yl)-3-methyl-2-oxo-1H,2H,3H-imidazo[4,5-b]pyridin-5-yl]piperidin-4-yl}oxy)cyclohexyl]methyl}piperazin-1-yl)methyl]-1-oxo-4-(trifluoromethyl)-2,3-dihydro-1H-isoindol-2-yl}phenyl)-3-[(4-methyl-4H-1,2,4-triazol-3-yl)methyl]cyclobutane-1-carbonitrile] are 50 to 500 nM, less than 5 nM, 35 to 70% and “C (C ≤ 35)”.
